Results as given in US20180271470A1, “METHODS FOR QUANTIFYING PANCREATIC BETA CELL FUNCTION AND MASS PROPERTIES WITH RADIOMANGANESE POSITRON EMISSION TOMOGRAPHY” (Wisconsin Alumni Research Foundation, priority 2017, published 2018).

What was measured:
[1] = system: isolated ob/ob mouse islets; assay: Uptake of ^52Mn^2+ in isolated islets under stimulatory or inhibitory conditions; type: cell-based; settings: 15 min incubation
Procedure: Mouse pancreatic islets were isolated by collagenase digestion. Briefly, mice were placed under shallow anesthesia and sacrificed via cervical dislocation. The mouse common bile duct was cannulized and 3-5 mL of an ice-cold solution containing type XI collagenase (0.5 mg/mL; Sigma Aldrich, St. Louis, Mo.) and bovine serum albumin (BSA; 0.2 mg/mL; Sigma Aldrich, St. Louis, Mo.) in Hank's balanced salt solution (HBSS; Invitrogen, Carlsbad, Calif.) was injected into the mouse pancreas. After inflation, the pancreas was removed, placed in a glass vial containing 5 mL of the collagenase solution, and incubated in a shaking water bath at 37° C. Samples were digested for approximately 30 min after which the digests were centrifuged at 50×g for 2 min and islet pellets were washed three times with 30 mL of an ice-cold BSA (0.2 mg/mL) in HBSS solution. The pellet was resuspended and islets handpicked into 35 mm petri dishes. Following isolation, islets were placed in RPMI1640 media supplemented with penicillin (100 U/mL; Invitrogen), streptomycin (100 μg/mL; Invitrogen), and FBS [10% (wt/vol); Sigma] and incubated overnight at 37° C. in a 5% CO2 atmosphere.
The uptake of ^52Mn^2+ by murine islets of Langerhans was determined under several stimulatory or inhibitory conditions. Batches of 50 islets were transferred into 0.45 μm filtered bottom 1 mL centrifuge vials (Thermo Fisher Scientific, Grand Island, N.Y.), 500 μL of Krebs-Ringer buffer (KRB: 118 mM NaCl, 5.4 mM KCl, 2.4 mM CaCl, 1.2 mM MgSO4, 1 mM […], 20 mM HEPES; pH 7.4) containing a low glucose concentration (1 mM D-glucose) were added and the islets incubated for 30 min at 37° C. After removing the supernatant following centrifugation at 50×g for 5 min, 250 μL of KRB containing glucose, diazoxide (50 μM; Tocris Biosciences, Bristol, UK), or tolbutamide (250 μM; Selleckchem, Houston, Tex.) were added, and the vials were spiked with 370 kBq (10 μCi) of ^52Mn^2+. After 15 min of incubation, the solutions were filtered and islets were washed three times with KRB. The ^52Mn^2+ radioactivity in the islet pellets were measured in an automated gamma counter (Perkin Elmer).

[2] = system: ^52Mn^2+ pancreatic uptake; assay: Pharmacological manipulation of ^52Mn^2+ pancreatic uptake in vivo (PET and biodistribution); design: species or system ICR mice
Procedure: To investigate the specificity of ^52Mn^2+ for beta cells, a series of studies were performed where ^52Mn^2+ uptake was manipulated through the pharmacologic stimulation or inhibition of the insulin secretory pathway. In these experiments, 0.74-1.85 MBq (20-50 μCi) of ^52Mn^2+ was administered IV into either female ICR or C57BL/6J mice and static PET scans were acquired at one hour post injection. During tracer administration, mice were awake. Mice were only anaesthetized by isoflurane (1%) immediately before PET imaging.
To corroborate the correlation between ^52Mn^2+ pancreatic uptake and the mechanism of insulin release in beta cells, the insulin secretory pathways were stimulated in vivo using glucose and glibendamide (Tocris Biosciences, Bristol, UK), which promotes insulin release in beta cells via blockade of ATP-sensitive potassium channel (KATP). Mice were injected intraperitoneally (IP) with 100 μL of glucose (1 g/kg) or glucose (1 g/kg)+glibenclamide (5 mg/kg) in PBS, 15 min before the IV injection of 0.74-1.85 MBq (20-50 μCi)^52Mn^2+. Static PET scans were acquired one hour after the injection of the radiotracer, after which ex vivo biodistribution was performed.
Whole-body PET scans were acquired at one hour post injection, after which ex vivo biodistribution was performed.

[3] = ^52Mn^2+ PET and biodistribution in STZ type-1 diabetes model; type: in vivo, ICR mice; settings: ICR female mice, single STZ 180 mg/kg IP, four days after induction
Procedure: Type 1 diabetes was induced in female ICR mice via a single IP injection of 180 mg/kg streptozotocin (STZ; MP Biomedical, LLC, Santa Ana, Calif.), a toxin that selectively destroys pancreatic beta cell. The injectable STZ solution (12.5 mg/mL) was prepared freshly in phosphate buffered saline (PBS). The weight of each mouse was measured daily, and blood glucose levels were recorded every other day with a glucometer (TRUEresult, Trividia Health Inc., Fort Lauderdale, Fla.) using blood samples collected from the tail vein. Mice were considered diabetic after two consecutive blood glucose readings above 250 mg/dL and were used for PET imaging studies one week after the injection of STZ. To evaluate ^52Mn^2+ pancreatic uptake on diabetic mice, 0.74 MBq (20 μCi) of activity were administered IV and static PET images recorded one hour after administration of the tracer. Ex vivo biodistribution was carried out following PET acquisition.

[4] = OLINDA dosimetry calculations for Mn-51 and daughter Cr-51; design: species or system human; settings: OLINDA input
Procedure: Due to the rapid blood clearance of Mn^2+, OLINDA (Organ Level INternal Dose Assessment) dosimetry calculations were performed assuming instant compartment localization with organ activity fractions equal to those measured by ex vivo biodistribution herein. Based on the previously measured lengthy organ residence times of Mn^2+, it was also assumed that the effective organ clearance half-life (Ter) was equal to the radioactive half-life of Mn-51 (t1/2: 45.6 min). It was also assumed that Mn-51 injections were 100% radionuclidically pure. In regards to the daughter isotope, Cr-51 (t1/2: 27.7 d), it was assumed that the activity remained in same organ compartments as the parent Mn-51 biodistribution without biological clearance. Standard radiation weighting factors were used (γ=1, β=1). Based on these assumptions, effective dose (ED) and effective dose equivalent (EDE) (units of mSv/MBq) were calculated for a standard adult male and female.

[5] = system: pancreatic uptake of ^52Mn^2+; assay: One hour biodistribution of ^52Mn^2+ in anesthetized (1% isoflurane) or awake mice; type: in vivo; settings: 1% isoflurane vs awake, 1 h post injection, regardless of administration regime or glucose stimulation
Procedure: Previous reports have shown that most volatile anesthetics, including isoflurane, impair insulin secretion by inhibiting the deactivation of KATP channels. Plausibly, the observed decrease in pancreatic uptake of ^52Mn^2+ resulted from mice being anesthetized through the full extent of the studies during the dynamic PET scans. To investigate the impact of isoflurane anesthesia on pancreatic uptake, one hour post injection biodistribution experiments were performed under different administration conditions in either anesthetized (1% isoflurane) or awake mice.

OC[C@H]1OC(O)[C@H](O)[C@@H](O)[C@@H]1O (some centres unmarked) [glucose]
effect on ^52Mn^2+ uptake by islets ([1]; 10 mM glucose vs 1 mM glucose): significantly enhanced

CC1=NS(=O)(=O)c2cc(Cl)ccc2N1 [diazoxide, 7-Chloro-3-methyl-4H-1,2,4-benzothiadiazine 1,1-dioxide]
decline in ^52Mn^2+ pancreatic uptake vs control ([2]; 20 mg/kg IP 10-15 min before IV ^52Mn^2+ bolus, PET 1 h post injection): 44% | pancreatic ^52Mn^2+ uptake after drug (PET quantification) ([2]; 20 mg/kg IP 10-15 min before IV ^52Mn^2+ bolus, PET 1 h post injection, control 5.13±0.36 SUV): 2.85±0.92 SUV | effect on PET signal within the pancreas ([2]; 20 mg/kg IP before ^52Mn^2+ bolus): significant (P<0.0001) abrogation | effect on glucose-stimulated ^52Mn^2+ uptake by islets ([1]; diazoxide 50 μM added to 10 mM glucose): blocked

CN(N=O)C(=O)N[C@@H]1[C@@H](O)[C@H](O)[C@@H](CO)O[C@@H]1O [STZ, reference compound]
blood glucose after induction [3]: > 250 mg/dL

[51Cr] [Cr-51]
Number of disintigrations, Total Body ([4]; Total Body): 7.20E+02 MBq-h/MBq | Number of disintigrations, Adrenals ([4]; source organ Adrenals): 0.00E+00 MBq-h/MBq | Number of disintigrations, Brain ([4]; source organ Brain): 3.93E+00 MBq-h/MBq | Number of disintigrations, Breasts ([4]; source organ Breasts): 0.00E+00 MBq-h/MBq | Number of disintigrations, Cortical Bone ([4]; source organ Cortical Bone): 7.48E−01 MBq-h/MBq | Number of disintigrations, Gallbladder Contents ([4]; source organ Gallbladder Contents): 0.00E+00 MBq-h/MBq | Number of disintigrations, Heart Contents ([4]; source organ Heart Contents): 0.00E+00 MBq-h/MBq | Number of disintigrations, Heart Wall ([4]; source organ Heart Wall): 2.10E+01 MBq-h/MBq | Number of disintigrations, Kidneys ([4]; source organ Kidneys): 6.12E+01 MBq-h/MBq | Number of disintigrations, LLI ([4]; source organ LLI): 0.00E+00 MBq-h/MBq | Number of disintigrations, Liver ([4]; source organ Liver): 5.58E+01 MBq-h/MBq | Number of disintigrations, Lungs ([4]; source organ Lungs): 1.49E+01 MBq-h/MBq | Number of disintigrations, Muscle ([4]; source organ Muscle): 1.93E+00 MBq-h/MBq | Number of disintigrations, Ovaries ([4]; source organ Ovaries): 0.00E+00 MBq-h/MBq | Number of disintigrations, Pancreas ([4]; source organ Pancreas): 3.64E+01 MBq-h/MBq | Number of disintigrations, Red Marrow ([4]; source organ Red Marrow): 0.00E+00 MBq-h/MBq | Number of disintigrations, Small Intestine ([4]; source organ Small Intestine): 0.00E+00 MBq-h/MBq | Number of disintigrations, Spleen ([4]; source organ Spleen): 8.12E+00 MBq-h/MBq | Number of disintigrations, Stomach ([4]; source organ Stomach): 1.23E+01 MBq-h/MBq | Number of disintigrations, Testes ([4]; source organ Testes): 0.00E+00 MBq-h/MBq | Number of disintigrations, Thymus ([4]; source organ Thymus): 0.00E+00 MBq-h/MBq | Number of disintigrations, Thyroid ([4]; source organ Thyroid): 0.00E+00 MBq-h/MBq | Number of disintigrations, Trabecular Bone ([4]; source organ Trabecular Bone): 0.00E+00 MBq-h/MBq | Number of disintigrations, ULI ([4]; source organ ULI): 5.70E+00 MBq-h/MBq | Number of disintigrations, Urinary Bladder Contents ([4]; source organ Urinary Bladder Contents): 0.00E+00 MBq-h/MBq | Number of disintigrations, Uterus/Uterine Wall ([4]; source organ Uterus/Uterine Wall): 0.00E+00 MBq-h/MBq

COc1ccc(Cl)cc1C(=O)NCCc1ccc(S(=O)(=O)NC(=O)NC2CCCCC2)cc1 [glibenclamide]
effect on pancreatic SUV values ([2]; glibenclamide 5 mg/kg IP (with glucose 1 g/kg) 15 min before ^52Mn^2+, 1 h post injection): significant enhancement

CCCCNC(=O)NS(=O)(=O)c1ccc(C)cc1 [tolbutamide]
effect on ^52Mn^2+ retention by islets ([1]; glucose and tolbutamide 250 μM): significantly higher

FC(F)OC(Cl)C(F)(F)F (centres unmarked) [Isoflurane]
effect on accumulation of ^52Mn^2+ in the pancreas [5]: significantly inhibited
